Data taken from ChEMBL document CHEMBL1201862, “PubChem BioAssay data set” (2004).
Activity calls are given as the source filed them.

How the values were obtained:
[1] = cells
[2] = viability of uninfected HEp-2 cells – cell-based, HTS, cytotoxicity control for RSV inhibitor project, dose response (AID 2410); type: functional; conditions: human respiratory syncytial virus
[3] = biological target: T1, E3 ubiquitin-protein ligase XIAP (Homo sapiens, UniProt P98170); test: Counter Screen using XIAP-Bir3 for Chemical Antagonists of Bir1/2 domains of IAP-family anti-apoptotic proteins. [Related pubchem assays (depositor defined):AID1018, AID1449, AID1514, AID1638, AID1749, AID1750, AID488957, AID488963]
[4] = biological target: T1, E3 ubiquitin-protein ligase XIAP; test: small molecules displacing peptide from XIAP – biochemical, IAP family, fluorescence polarization (AID 1018); type: functional
[5] = A Cell Based Secondary Assay To Explore Cytotoxicity of Compounds that Sensitize Mycobacterium Tuberculosis to Beta-Lactam Antibiotics.; type: functional
[6] = biological target: G-protein coupled receptor 55 (Homo sapiens, UniProt Q9Y2T6); test: inhibition of LPI-stimulated GPR55 beta-arrestin translocation – imaging, U2OS, beta-arrestin-GFP, LPI agonist, primary screen (AID 2013); type: functional;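 note: antagonist potency measured as reduced agonist-driven arrestin aggregation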
[7] = Luminescence Cell-Based Dose Confirmation to Identify Activators of 5'UTR Stem-Loop Driven Alpha-Synuclein mRNA Translation in H4 Neuroglioblastoma Cells. [Related pubchem assays: 1829 (Project Summary), 1814 (Primary HTS)]; type: functional
[8] = Luminescence Cell-Based Dose Response to Identify Activators of 5'UTR Stem-Loop Driven Prion Protein mRNA Translation in H4-C Neuroglioblastoma Cells. [Related pubchem assays: 1829 (Project Summary), 1814 (Primary HTS)]; type: functional
[9] = biological target: T2, Sentrin-specific protease 6 (Homo sapiens, UniProt Q9GZR1); type: functional;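 note: Luminescence-based dose-response confirmatory assay of SENP6 inhibition, following up an ultra-high-throughput screen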
T2 sequence (Q9GZR1 whole entry): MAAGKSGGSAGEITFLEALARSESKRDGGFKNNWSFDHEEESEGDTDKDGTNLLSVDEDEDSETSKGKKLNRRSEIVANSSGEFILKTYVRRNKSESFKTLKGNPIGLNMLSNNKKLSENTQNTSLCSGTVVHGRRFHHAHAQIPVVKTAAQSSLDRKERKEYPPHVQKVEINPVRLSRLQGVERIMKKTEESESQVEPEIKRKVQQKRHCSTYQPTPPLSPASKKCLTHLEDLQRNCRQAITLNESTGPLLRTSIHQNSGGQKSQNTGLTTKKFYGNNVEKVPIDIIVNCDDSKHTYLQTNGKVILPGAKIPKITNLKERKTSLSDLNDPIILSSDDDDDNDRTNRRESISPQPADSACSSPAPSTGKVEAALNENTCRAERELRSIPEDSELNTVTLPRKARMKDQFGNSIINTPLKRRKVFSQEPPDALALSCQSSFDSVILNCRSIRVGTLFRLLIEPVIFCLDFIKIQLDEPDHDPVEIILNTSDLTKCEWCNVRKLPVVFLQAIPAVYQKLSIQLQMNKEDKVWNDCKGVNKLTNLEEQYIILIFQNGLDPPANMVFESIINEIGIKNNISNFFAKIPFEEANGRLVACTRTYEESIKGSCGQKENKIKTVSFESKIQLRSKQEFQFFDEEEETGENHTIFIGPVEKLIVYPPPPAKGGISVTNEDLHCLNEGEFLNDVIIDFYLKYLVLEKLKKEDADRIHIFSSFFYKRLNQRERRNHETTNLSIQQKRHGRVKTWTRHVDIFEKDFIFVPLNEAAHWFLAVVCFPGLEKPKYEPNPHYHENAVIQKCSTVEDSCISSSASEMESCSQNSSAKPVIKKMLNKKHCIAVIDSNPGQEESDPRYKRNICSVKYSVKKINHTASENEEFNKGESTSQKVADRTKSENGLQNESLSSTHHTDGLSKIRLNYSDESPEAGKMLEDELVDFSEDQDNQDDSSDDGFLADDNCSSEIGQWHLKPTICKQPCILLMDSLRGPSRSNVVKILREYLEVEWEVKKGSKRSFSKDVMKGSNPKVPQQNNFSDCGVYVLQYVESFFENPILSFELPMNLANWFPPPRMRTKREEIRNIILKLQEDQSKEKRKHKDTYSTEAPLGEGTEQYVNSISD

[10] = test system: H4; test: Luminescence Cell-Based Dose Response HTS to Identify Activators of 5'UTR Stem-Loop Driven Prion Protein mRNA Translation in H4 Neuroglioblastoma Cells. [Related pubchem assays: 1829 (Project Summary), 1814 (Primary HTS)]; type: functional; conditions: Homo sapiens
[11] = biological target: T3, Sentrin-specific protease 7 (Homo sapiens, UniProt Q9BQF6); type: functional;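 note: Luminescence-based dose-response confirmation of ultra-high-throughput screening hits, measuring inhibition of SENP7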
T3 sequence (Q9BQF6 whole entry): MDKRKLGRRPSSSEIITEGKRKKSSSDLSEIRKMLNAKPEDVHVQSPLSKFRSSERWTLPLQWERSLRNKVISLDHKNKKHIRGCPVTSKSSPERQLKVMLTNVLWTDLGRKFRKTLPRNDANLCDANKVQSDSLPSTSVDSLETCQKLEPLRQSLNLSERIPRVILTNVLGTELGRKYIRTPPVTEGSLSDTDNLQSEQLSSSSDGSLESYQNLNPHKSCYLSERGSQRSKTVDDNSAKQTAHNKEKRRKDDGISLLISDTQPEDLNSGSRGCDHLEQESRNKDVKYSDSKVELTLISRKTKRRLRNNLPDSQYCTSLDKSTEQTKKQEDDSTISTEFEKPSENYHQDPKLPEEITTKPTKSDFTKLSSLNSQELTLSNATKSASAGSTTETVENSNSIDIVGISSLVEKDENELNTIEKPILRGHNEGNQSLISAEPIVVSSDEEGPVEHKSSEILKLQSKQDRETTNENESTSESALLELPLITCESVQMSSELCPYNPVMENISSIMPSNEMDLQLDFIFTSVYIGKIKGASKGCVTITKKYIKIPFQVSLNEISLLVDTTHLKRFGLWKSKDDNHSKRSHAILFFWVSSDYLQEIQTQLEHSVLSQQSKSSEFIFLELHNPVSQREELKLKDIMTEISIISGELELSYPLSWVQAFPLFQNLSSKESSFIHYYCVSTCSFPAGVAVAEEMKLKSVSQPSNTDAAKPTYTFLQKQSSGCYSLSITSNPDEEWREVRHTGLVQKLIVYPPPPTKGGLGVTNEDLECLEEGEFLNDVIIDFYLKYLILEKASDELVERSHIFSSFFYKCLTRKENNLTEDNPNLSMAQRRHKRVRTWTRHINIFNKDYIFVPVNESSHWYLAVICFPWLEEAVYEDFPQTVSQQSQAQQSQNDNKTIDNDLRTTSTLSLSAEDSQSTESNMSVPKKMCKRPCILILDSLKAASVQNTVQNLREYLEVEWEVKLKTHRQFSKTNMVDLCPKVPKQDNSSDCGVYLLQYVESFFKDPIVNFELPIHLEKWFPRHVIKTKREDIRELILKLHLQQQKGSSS

[12] = biological target: T4, Sentrin-specific protease 8 (Homo sapiens, UniProt Q96LD8); type: functional;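 note: luminescence read-out of SENP8 inhibition, dose-response confirmation following an ultra-high-throughput screen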
T4 sequence (Q96LD8 whole entry): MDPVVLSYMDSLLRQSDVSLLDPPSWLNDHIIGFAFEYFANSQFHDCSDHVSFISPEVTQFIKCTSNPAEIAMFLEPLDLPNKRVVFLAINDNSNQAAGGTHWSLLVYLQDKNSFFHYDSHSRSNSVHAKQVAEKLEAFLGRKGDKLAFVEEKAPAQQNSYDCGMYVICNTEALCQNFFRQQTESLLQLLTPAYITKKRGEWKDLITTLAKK

[13] = biological target: T5, Caspase-3 (Homo sapiens, UniProt P42574); type: functional;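 note: Dose-response selectivity test against caspase-3 for candidate inhibitors of sentrin-specific proteases (SENPs)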
T5 sequence (P42574 whole entry): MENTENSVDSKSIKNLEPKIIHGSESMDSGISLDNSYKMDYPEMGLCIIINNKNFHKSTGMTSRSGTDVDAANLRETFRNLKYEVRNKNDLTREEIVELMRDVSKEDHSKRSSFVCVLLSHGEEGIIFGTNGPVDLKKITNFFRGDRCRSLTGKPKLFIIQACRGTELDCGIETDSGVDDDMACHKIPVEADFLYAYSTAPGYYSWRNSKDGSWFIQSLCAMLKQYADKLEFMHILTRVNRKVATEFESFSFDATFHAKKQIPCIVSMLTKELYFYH

[14] = Luminescence Cell-Based Dose Response to Identify Activators of Luciferase Translation or Activity in H4-C Neuroglioblastoma Cells. [Related pubchem assays: 1829 (Project Summary), 1814 (Primary HTS)]; type: functional
[15] = Trypanosoma cruzi growth suppression in host cells – NIH3T3 host cells, beta-gal luminescence, confirmation (AID 2044); type: functional, cell-based;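 note: intracellular parasites grown in NIH/3T3 mouse fibroblasts as host cells; luminescent beta-galactosidase reporter signal from transgenic T. cruzi replicating inside host cells; inhibitors lower the luminescence signal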
[16] = viability loss in THP-1 monocytes – THP-1 cells, cytotoxicity control for Vif-APOBEC3G degradation inhibitor project, dose response (AID 1117359); type: functional; conditions: THP-1
[17] = NIH3T3 cell viability loss – ATP luminescence, mouse fibroblasts, counter-screen, dose response (AID 2010); type: functional, cell-based;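 note: cells exposed to compound for about 90 hours before reading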
[18] = biological target: T6, Tyrosine-protein phosphatase non-receptor type 7 (Homo sapiens, UniProt P35236); test: redox-active compounds inhibiting HePTP phosphatase – biochemical, fluorescence, mechanism study (AID 2068); type: functional
T6 sequence (P35236 whole entry): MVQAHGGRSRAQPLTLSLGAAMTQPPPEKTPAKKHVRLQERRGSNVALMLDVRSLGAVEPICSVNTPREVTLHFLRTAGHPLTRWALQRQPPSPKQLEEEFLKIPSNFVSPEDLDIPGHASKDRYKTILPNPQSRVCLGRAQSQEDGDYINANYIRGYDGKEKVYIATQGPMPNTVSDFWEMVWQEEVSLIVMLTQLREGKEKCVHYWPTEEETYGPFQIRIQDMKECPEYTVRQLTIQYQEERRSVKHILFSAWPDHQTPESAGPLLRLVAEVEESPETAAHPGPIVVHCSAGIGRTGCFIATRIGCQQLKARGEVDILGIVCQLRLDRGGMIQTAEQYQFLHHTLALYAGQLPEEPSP

T1 sequence (P98170 whole entry): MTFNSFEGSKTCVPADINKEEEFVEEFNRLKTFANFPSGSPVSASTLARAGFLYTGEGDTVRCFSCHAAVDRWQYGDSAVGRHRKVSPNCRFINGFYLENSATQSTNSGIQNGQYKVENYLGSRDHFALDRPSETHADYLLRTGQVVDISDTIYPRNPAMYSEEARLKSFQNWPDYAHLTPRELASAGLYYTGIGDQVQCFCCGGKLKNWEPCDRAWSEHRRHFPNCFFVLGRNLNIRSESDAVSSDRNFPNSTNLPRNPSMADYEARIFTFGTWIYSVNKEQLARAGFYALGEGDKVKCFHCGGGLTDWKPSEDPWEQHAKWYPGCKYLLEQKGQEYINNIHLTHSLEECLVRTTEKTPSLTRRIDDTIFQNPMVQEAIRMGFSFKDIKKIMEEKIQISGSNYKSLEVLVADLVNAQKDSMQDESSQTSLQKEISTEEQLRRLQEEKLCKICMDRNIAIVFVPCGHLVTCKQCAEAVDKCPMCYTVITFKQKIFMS
G-protein coupled receptor 55, sequence (Q9Y2T6 whole entry): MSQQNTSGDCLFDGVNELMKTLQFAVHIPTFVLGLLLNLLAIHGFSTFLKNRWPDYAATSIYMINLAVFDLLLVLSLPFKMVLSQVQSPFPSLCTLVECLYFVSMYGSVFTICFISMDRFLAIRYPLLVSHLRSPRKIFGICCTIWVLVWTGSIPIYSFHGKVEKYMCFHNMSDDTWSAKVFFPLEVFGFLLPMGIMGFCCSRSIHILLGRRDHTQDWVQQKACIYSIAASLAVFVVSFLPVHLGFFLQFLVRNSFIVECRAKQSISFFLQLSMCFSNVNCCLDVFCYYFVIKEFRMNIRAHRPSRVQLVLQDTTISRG

With `Cc1ccc2cc(CN(Cc3ccco3)C(=O)c3ccco3)c3nnnn3c2c1` the IC50 [1] was 44.3 µM (active) and the CC50 [2] was > 50 µM (active).
With `COc1cc2c(cc1OC)-c1cc(NC3CCCC3)nc(=O)n1CC2` the IC50 [3] was > 100 µM (inactive) and the IC50 [4] was > 100 µM (not active).
For `Cc1nc(SCC(=O)NCc2ccco2)c2c3c(sc2n1)CCCC3`, the CC50 [5] was 19.8 µM (active).
For `CCOC(=O)c1c(CSC(=N)N)n(C)c2cc(Br)c(OC(C)=O)cc12`, the IC50 [6] was 1.22 µM (active).
In the case of `CC1CC(N(C(=O)c2ccco2)c2ccccc2)c2ccccc2N1C(=O)c1ccco1` (centres undefined), the IC50 [6] is reported as 5.52 µM (active).
For `Cc1cccc(-c2cc3nc4c(c(N5CCOCC5)n3n2)CCCC4)c1`, the EC50 [7] was 0.228 µM (active), the EC50 [8] was 0.734 µM (active) and the IC50 [9] was 18.5 µM (active). For the same compound, the EC50 [10] was < 0.1 µM (active), the IC50 [11] was 12.9 µM (active) and the IC50 [12] was 19.4 µM (active). The IC50 [13] was 12.4 µM (active) and the EC50 [14] was 0.514 µM (active).
For `CCn1c(=O)c2cc(C(=O)N(C)c3ccccc3F)sc2c2ccccc21`, the CC50 [5] was > 40 µM (active), the EC50 [15] was 1.04 µM (active) and the CC50 [16] was > 40 µM (active). For the same compound, the EC50 [17] was > 30 µM (not active).
With `O=C(Nc1ccc(F)cc1)c1ccccc1CC[N+](=O)[O-]` the IC50 [3] was > 100 µM (inactive) and the IC50 [4] was > 100 µM (not active).
With `O=C1CSC(c2ccccc2Br)N1c1ccc(Cl)cn1` (centres undefined) the IC50 [6] was 4.58 µM (active).
With `COc1ccccc1NC(=O)CCn1c(=O)c2cccn2c2ccccc21` the IC50 [1] was 43.8 µM (active) and the CC50 [2] was > 50 µM (active).
With `Cc1ccc(Cn2c(SCC(=O)N3CC(=O)Nc4ccccc43)nc3ccccc3c2=O)cc1` the IC50 [1] was 42 µM (active) and the CC50 [2] was 40.2 µM (active).
In the case of `C=CCn1c(SCC(=O)NCc2ccco2)nnc1-c1ccc2ccccc2n1`, the IC50 [3] is reported as > 100 µM (inactive) and the IC50 [4] is reported as > 100 µM (not active).
With `O=C(Nc1ccc(Cl)cc1)N(Cc1cccnc1)Cc1ccco1` the IC50 [3] was > 100 µM (inactive), the EC50 [15] was 1.1 µM (active) and the EC50 [17] was > 30 µM (not active). The IC50 [4] was > 100 µM (not active).
With `O=C(Nc1ccc(Cl)cc1)Nc1ccc2nc(-c3ccco3)c(-c3ccco3)nc2c1` the IC50 [18] was 0.949 µM (active).
With `CCCCN(C)Cc1cc(=O)oc2cc3c(cc12)CCCC3` the CC50 [5] was > 40 µM (active).
